# Legend:
# [1] = target: T1, human liver TGH (Homo sapiens, UniProt P23141); assay: Effect of test agents on human liver TGH (4-methylumbelliferyl butyrate fluorogenic substrate); format: biochemical; settings: purified human liver TGH 1.16 nM, 15-min pre-incubation, 4-MU-butyrate substrate; read-out: concentration which resulted in 50% inhibition of TGH
# T1 construct: the enzyme from microsomal membranes of liver tissues was solubilised by the zwitterionic detergent; from tissue; host or cells: human liver (microsomal membranes)
# T1 sequence (P23141 21-567 limits assumed): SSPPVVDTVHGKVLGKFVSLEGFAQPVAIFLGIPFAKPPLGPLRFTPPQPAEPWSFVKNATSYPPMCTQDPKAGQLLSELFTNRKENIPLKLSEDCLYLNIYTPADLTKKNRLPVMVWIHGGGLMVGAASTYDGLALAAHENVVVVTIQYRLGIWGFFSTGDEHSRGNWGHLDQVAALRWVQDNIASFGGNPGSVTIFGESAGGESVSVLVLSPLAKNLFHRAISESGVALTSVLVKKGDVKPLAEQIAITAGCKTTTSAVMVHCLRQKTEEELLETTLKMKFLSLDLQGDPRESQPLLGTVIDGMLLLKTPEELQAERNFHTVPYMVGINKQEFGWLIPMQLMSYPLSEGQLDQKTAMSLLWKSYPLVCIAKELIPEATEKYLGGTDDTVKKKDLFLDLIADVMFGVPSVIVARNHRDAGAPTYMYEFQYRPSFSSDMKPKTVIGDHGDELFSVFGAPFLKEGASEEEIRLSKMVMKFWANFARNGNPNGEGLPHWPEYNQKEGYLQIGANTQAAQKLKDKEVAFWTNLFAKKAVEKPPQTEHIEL
# Experimental: Human liver TGH was purified according to Lehner and Verger's protocol described for the porcine liver TGH [13). Briefly, the enzyme from microsomal membranes of liver tissues was solubilised by the zwitterionic detergent 3-[(3 cholamidopropyl)dimethylammonio]-1-propanesulfonate (CHAPS) and was purified to apparent homogeneity by sequential chromatography on Q-sepharose and hydroxyapatite.
# The enzymatic activity of TGH was evaluated with the fluorogenic substrate 4-methylumbelliferyl butyrate (4-MU-butyrate). Briefly, 10 μl of a solution of 25 mM of 4-MU-butyrate in tetrahydrofuran was injected in 2 ml of a buffer containing Tris (20 mM), pH 8.0, EDTA (1 mM) and taurodeoxycholate (300 μM). TGH activity was assayed at 1.16 nM in a final volume of 100 μl. The compound was dissolved in DMSO to be tested at various concentrations (from 1 nM to 2 μM) and was incubated with the enzyme 15-min prior to the addition of 20 μl of the substrate, which gives the starting point of the enzymatic reaction. […]
# The basal level of fluorescence of the substrate was evaluated in a reaction mixture of 70 μl of buffer, 10 μl of DMSO (at the appropriate dilution) and 20 μl of substrate, and was subtracted from each other data. Rates of lipolysis were determined from continuous increase in fluorescence intensity at 460 nm (Excitation: 355 nm).
# [2] = target: T2, lipoprotein lipase (LPL) from bovine milk (Bos taurus, UniProt P11151); assay: Effect of TGH inhibitors on lipoprotein lipase activity (radiolabelled trioleoylglycerol hydrolysis); format: biochemical; settings: tested at 5 μM, incubated with the enzyme 15-min prior to substrate
# T2 construct: lipoprotein lipase (LPL) from bovine milk; from tissue; host or cells: bovine milk
# T2 sequence (P11151 29-478): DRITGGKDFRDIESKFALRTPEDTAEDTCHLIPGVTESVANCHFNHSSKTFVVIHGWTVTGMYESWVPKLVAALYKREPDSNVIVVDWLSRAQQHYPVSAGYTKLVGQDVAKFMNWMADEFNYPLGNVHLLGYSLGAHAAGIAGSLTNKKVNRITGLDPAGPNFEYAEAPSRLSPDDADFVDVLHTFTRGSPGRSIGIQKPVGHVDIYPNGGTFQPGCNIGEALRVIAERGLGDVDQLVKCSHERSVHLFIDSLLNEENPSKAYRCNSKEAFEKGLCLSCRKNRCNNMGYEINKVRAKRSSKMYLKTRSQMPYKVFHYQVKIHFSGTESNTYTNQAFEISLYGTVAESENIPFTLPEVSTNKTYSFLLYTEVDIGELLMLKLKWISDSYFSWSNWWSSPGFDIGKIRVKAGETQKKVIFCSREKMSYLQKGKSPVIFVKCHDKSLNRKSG
# Experimental: In order to evaluate the specificity of TGH inhibitors toward TGH, test compound was tested on the enzymatic activity of lipoprotein lipase (LPL) from bovine milk. For this purpose radiolabelled trioleoylglycerol (250 μM, specific activity 1 mCi/mmole) was emulsified in mixture of 10% gum arabic by sonication. Long-chain triacylglycerol hydrolysis was assayed in a final volume of 200 μl containing LPL (1.5 μg/ml), Tris (50 mM), pH 8.0; MgCl2 CaCl2 (1 mM), and 150 mM NaCl with 1 mg/ml BSA as a fatty acid acceptor for 30 min at 37° C. The reaction was terminated with the addition of 3.25 ml of methanol/chloroform/heptane (3.85:3.42:2.73 by volume); 0.3 ml of 150 mM NaCl, lipid carriers (100 μg of unlabelled oleic acid), and 50 μl of 1 N NaOH. The mixture was vortexed and centrifuged. One ml of the upper phase (containing the fatty acids that have been hydrolyzed) was mixed with 10 ml of Cytoscint and counted. Test compound is incubated with the enzyme 15 minutes prior to the addition of the substrate.
# [3] = tested on: normal fed hamsters; assay: Hypolipidemic activity of the TGH inhibitor in hamster; format: in vivo; settings: oral, 25 mg/kg twice a day for 3 days
# Experimental: Ten normal fed hamsters were randomly allocated into 2 groups. Animals from one group were orally gavaged with a test TGH inhibitor in DMSOI Labrafil (10/90%), 25 mg/kg, twice a day for 3 days while the animals from the other group were gavaged with the solvent (DMSOI/abrafil) twice a day for 3 days. The animals were sacrificed 4 hours following the last administration and the plasma lipids and lipoproteins were analyzed.
# Total cholesterol (TC) and triglyceride (TG) levels in plasma were determined enzymatically with reagents from Bio Merieux. VLDL/LDL lipoprotein fractions were separated from the HDL lipoproteins by gradient centrifugation (d=1.063). Cholesterol in the VLDL/LDL as well as in the HDL fraction was also determined using the Bio Merieux kit. Apolipoprotein B-100 (Apo-B100) in the VLDL/LDL fraction was visualized by using SDS-PAGE under reducing conditions using resolving gels containing a 5% to 12% gradient.
# [4] = 4 hours after last administration
compound,measurement,setting,value
"Cc1cccc(NN=C(C(=O)c2cccs2)C(=O)C(F)(F)F)c1 [4,4,4-trifluoro-2-[2-(3-methylphenyl)hydrazono]-1-(2-thienyl)butane-1,3-dione]",IC50,[1],4 nM
same,effect on the enzymatic activity of LPL,[2],did not affect
same,HDL cholesterol level,[3]; [4],not significantly affected
same,reduction in VLDL/LDL cholesterol (from the solvent treated animals),[3]; [4],40%
same,reduction in the plasma TG concentration (from the solvent treated animals),[3]; [4],−55%
same,ApoB100 decrease compared to control animals,"[3]; VLDL/LDL fraction, SDS-PAGE",−39%
